Reference: patent US10508120B2, “TYK2 inhibitors and uses thereof” (Nimbus Lakshmi, Inc., priority 2017, dated 2019)
Where two headings read alike, the source gives them in different places.

Key:
[1] = biological target: JAK2 kinase domain (JH1) (Homo sapiens (Human), UniProt O60674); test: JAK2 Radioactive Kinase Assay; assay type: biochemical; settings: read-out: JAK2 JH1% Inhibition @ 10 μM
How it was run: (§1)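 Compounds were tested at a single concentration of 10 μM in a radiometric kinase format against each isolated kinase domain. Activity is reported as percent inhibition at that concentration.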

[2] = biological target: JAK2/JAK2 homdimeric complex (Homo sapiens (Human), UniProt O60674); test: GM-CSF Induced pSTAT5 in Human PBMC; assay type: cell-based; settings: GM-CSF 5 ng/mL for 20 minutes, pSTAT5 by MSD, read-out: PBMC_GMCSF_pSTAT5 IC50
[3] = biological target: Tyk2/JAK2 (heterodimeric complex) (Homo sapiens (Human), UniProt P29597); test: IL-12 Induced pSTAT4 in Human PBMC; assay type: cell-based; settings: 1.7 ng/mL IL-12
Text: The IL-12 Induced pSTAT4 assay evaluates the inhibition of IL-12 induced STAT4 phophorylation mediated by Tyk2/JAK2 (heterodimeric complex).

[4] = biological target: Tyk2 kinase domain (DH1) (Homo sapiens (Human), UniProt P29597); test: Tyk2 Radioactive Kinase Assay; assay type: biochemical; settings: read-out: Tyk2 JH1% Inhibition @ 10 μM
How it was run: as §1

[5] = biological target: human TYK2 (JH2domain-pseudokinase) (Homo sapiens (Human), UniProt P29597); test: TYK2 JH2 Domain Binding Assay (KINOMEscan)
How it was run: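 Displacement of a DNA-tagged TYK2 JH2 fusion (human, aa G556–D888, HEK293 extract, <0.1 nM) from ligand-coated beads over 1 h at RT; binding buffer PBS/0.05% Tween 20/10 mM DTT/0.1% BSA.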

Sequence of JAK2 kinase domain (JH1) (O60674 849-1124): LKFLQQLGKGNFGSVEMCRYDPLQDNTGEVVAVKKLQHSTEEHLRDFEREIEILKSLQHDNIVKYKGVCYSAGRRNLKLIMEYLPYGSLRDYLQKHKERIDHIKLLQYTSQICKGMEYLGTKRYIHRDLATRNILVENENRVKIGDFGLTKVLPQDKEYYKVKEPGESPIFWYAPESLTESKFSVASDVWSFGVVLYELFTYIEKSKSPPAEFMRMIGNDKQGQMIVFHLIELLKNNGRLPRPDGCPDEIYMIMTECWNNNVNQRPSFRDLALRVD
Sequence of human TYK2 (JH2domain-pseudokinase) (P29597 556-888): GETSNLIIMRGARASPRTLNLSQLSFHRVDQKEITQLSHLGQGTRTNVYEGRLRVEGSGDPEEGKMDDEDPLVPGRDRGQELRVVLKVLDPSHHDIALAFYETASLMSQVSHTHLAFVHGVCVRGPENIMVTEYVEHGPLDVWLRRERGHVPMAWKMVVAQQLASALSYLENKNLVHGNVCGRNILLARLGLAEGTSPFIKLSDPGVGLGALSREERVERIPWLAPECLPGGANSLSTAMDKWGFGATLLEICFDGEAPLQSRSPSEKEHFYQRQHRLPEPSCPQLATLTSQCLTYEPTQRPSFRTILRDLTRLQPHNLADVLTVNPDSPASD
Sequence of Tyk2 kinase domain (DH1) (P29597 897-1176): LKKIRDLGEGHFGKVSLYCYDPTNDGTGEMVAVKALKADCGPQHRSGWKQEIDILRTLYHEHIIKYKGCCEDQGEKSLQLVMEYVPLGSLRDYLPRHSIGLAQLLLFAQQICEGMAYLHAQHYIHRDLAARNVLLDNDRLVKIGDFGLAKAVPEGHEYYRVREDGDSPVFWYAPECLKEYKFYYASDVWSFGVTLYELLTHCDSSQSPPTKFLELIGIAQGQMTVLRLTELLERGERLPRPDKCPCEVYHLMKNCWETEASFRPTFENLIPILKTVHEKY
Sequence of Tyk2/JAK2 (heterodimeric complex) (P29597 whole entry, other chains not shown): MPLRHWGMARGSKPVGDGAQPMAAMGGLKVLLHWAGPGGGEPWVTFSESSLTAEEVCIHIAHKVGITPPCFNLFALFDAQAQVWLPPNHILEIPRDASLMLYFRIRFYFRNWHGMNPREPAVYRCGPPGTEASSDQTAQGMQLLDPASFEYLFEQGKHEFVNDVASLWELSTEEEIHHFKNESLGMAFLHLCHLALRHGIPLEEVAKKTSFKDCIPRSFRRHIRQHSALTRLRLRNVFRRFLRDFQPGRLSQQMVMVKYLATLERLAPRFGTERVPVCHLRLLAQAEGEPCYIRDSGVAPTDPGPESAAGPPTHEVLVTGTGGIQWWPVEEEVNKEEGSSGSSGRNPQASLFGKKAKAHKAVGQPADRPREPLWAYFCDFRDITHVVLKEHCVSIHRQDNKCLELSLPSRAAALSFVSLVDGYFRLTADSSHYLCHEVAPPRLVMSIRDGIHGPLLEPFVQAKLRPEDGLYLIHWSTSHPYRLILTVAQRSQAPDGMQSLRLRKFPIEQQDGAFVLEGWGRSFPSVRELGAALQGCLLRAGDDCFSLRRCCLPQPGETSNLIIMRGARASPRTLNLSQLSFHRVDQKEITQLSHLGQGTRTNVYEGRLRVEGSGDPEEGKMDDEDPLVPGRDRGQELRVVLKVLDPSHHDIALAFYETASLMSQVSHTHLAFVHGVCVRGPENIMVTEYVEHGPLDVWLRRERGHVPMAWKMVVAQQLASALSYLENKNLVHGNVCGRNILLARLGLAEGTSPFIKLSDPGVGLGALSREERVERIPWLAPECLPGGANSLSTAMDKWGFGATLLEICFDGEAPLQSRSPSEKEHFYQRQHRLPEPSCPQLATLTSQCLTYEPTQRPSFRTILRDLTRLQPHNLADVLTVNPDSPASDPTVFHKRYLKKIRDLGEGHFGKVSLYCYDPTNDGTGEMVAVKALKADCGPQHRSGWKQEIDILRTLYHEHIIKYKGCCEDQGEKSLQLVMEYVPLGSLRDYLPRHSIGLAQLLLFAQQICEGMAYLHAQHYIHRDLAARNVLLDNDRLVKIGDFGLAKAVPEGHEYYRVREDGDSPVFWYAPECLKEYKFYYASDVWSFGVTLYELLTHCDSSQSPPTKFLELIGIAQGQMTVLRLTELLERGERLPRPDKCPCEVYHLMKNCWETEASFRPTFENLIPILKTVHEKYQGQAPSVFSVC
Sequence of JAK2/JAK2 homdimeric complex (O60674 whole entry): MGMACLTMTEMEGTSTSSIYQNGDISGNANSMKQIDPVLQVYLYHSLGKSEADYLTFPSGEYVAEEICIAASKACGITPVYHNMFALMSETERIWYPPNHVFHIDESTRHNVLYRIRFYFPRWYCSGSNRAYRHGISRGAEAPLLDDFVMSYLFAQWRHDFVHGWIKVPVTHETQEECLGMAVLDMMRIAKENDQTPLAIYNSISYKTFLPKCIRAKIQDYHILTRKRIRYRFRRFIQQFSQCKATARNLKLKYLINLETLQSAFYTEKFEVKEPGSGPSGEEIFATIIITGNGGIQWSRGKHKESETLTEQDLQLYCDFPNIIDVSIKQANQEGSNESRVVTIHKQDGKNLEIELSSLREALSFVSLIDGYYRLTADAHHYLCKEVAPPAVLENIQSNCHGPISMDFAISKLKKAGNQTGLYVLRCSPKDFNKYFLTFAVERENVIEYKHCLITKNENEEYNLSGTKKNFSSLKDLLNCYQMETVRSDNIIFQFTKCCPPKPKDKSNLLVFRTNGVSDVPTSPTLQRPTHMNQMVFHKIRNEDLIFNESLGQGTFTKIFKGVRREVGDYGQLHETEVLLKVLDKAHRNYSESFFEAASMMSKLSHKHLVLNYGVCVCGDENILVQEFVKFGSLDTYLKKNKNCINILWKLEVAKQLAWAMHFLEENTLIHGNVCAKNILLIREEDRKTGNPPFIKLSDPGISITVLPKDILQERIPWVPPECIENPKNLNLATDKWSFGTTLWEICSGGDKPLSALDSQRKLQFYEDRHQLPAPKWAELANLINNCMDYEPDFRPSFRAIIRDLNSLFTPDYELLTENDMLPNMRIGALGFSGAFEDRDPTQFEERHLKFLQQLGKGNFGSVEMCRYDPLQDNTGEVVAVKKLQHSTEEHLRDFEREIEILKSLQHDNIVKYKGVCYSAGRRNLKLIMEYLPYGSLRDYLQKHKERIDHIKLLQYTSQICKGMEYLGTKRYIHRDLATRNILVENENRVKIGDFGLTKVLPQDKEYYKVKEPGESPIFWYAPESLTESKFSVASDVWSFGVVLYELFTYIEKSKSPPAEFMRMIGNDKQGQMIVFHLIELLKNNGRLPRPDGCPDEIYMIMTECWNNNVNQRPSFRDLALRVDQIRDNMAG
Sequence of JAK2/JAK2 homdimeric complex (P32927 17-897 partner): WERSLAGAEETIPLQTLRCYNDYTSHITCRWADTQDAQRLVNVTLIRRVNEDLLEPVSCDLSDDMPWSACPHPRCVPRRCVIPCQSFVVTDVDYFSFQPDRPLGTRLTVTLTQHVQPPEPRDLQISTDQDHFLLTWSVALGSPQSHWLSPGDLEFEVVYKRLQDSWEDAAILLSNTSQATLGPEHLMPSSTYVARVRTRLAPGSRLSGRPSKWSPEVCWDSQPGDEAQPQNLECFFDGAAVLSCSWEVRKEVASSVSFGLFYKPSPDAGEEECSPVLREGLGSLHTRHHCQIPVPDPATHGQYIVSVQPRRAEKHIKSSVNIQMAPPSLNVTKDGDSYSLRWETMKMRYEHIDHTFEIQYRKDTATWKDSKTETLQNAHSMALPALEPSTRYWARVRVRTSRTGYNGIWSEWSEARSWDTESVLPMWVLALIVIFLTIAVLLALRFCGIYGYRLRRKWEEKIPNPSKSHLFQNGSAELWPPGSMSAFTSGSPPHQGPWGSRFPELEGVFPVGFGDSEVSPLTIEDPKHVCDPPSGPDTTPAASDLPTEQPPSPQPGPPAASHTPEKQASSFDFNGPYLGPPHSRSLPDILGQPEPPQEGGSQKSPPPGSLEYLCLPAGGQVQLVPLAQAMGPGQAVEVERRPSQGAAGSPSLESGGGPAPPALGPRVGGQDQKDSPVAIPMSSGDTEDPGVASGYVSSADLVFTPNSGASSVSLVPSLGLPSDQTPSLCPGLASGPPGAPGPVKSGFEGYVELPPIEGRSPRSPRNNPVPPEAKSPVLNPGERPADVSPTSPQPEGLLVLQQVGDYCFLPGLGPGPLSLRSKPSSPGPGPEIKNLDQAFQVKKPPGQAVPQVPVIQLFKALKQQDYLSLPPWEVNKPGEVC

CNc1cc(Nc2cccn(C3CCOCC3)c2=O)nc2c(C(=O)NC3CC3)cnn12 [I-329]
inhibition at 10 µM ([1]; compound at 10 μM, ATP 10 μM): < 50%
IC50 [2]: > 2500 nM
IC50 [3]: < 100 nM
inhibition at 10 µM ([4]; compound at 10 μM, ATP 10 μM): < 50%
Kd [5]: < 0.2 nM

CNc1cc(-c2cn(C(C)C)c3ncccc23)nc2c(C(=O)N[C@@H]3CC[C@H]3O)cnn12 [I-640]
inhibition at 10 µM ([1]; compound at 10 μM, ATP 10 μM): < 50%
IC50 [2]: > 12500 nM
IC50 [3]: < 100 nM
inhibition at 10 µM ([4]; compound at 10 μM, ATP 10 μM): < 50%
Kd [5]: < 0.2 nM

CNc1cc(Nc2cc(Cl)cn(C3CCOCC3)c2=O)nc2c(C(=O)N[C@@H]3CC[C@H]3O)cnn12 [I-825]
inhibition at 10 µM ([1]; 10 μM compound, 10 μM ATP): < 50%
IC50 [2]: > 50000 nM
IC50 [3]: < 100 nM
inhibition at 10 µM ([4]; 10 μM compound, 10 μM ATP): < 50%
Kd [5]: < 0.2 nM

CNc1cc(Nc2cccn(-c3cc(C)n(C)n3)c2=O)nc2c(C(=O)NC3CC3)cnn12 [I-138]
inhibition at 10 µM ([1]; compound at 10 μM, ATP 10 μM): < 50%
IC50 [2]: > 50000 nM
IC50 [3]: < 100 nM
inhibition at 10 µM ([4]; compound at 10 μM, ATP 10 μM): < 50%
Kd [5]: < 0.2 nM

CNc1cc(Nc2cccnc2OC)nc2c(C(=O)N[C@@H]3CC[C@H]3O)cnn12 (stereo in doubt) [I-363, N-((1R,2R)-2-hydroxycyclobutyl)-5-((2-methoxypyridin-3-yl)amino)-7-(methylamino)pyrazolo[1,5-a]pyrimidine-3-carboxamide]
inhibition at 10 µM ([1]; compound at 10 μM, ATP 10 μM): 50 to 70%
IC50 [2]: > 50000 nM
IC50 [3]: < 100 nM
inhibition at 10 µM ([4]; compound at 10 μM, ATP 10 μM): < 50%
Kd [5]: < 0.2 nM

[2H]C([2H])([2H])Nc1cc(Nc2cccnc2OC)nc2c(C(=O)N[C@@H]3C[C@@H]3F)cnn12 (stereo in doubt) [I-374, N-((1R,2S)-2-fluorocyclopropyl)-5-((2-methoxypyridin-3-yl)amino)-7-((methyl-d3)amino)pyrazolo[1,5-a]pyrimidine-3-carboxamide]
inhibition at 10 µM ([1]; compound at 10 μM, ATP 10 μM): < 50%
IC50 [2]: > 50000 nM
IC50 [3]: < 100 nM
inhibition at 10 µM ([4]; compound at 10 μM, ATP 10 μM): < 50%
Kd [5]: < 0.2 nM

CNc1cc(Nc2cc(C)cn(-c3cnn(C)c3)c2=O)nc2c(C(=O)NC3CCC3)cnn12 [I-234]
inhibition at 10 µM ([1]; compound at 10 μM, ATP 10 μM): < 50%
IC50 [2]: > 2500 nM
IC50 [3]: < 100 nM
inhibition at 10 µM ([4]; compound at 10 μM, ATP 10 μM): < 50%
Kd [5]: < 0.2 nM

CNc1cc(Nc2cccn(-c3ncco3)c2=O)nc2c(C(=O)N[C@H]3C[C@H]3F)cnn12 [I-716]
inhibition at 10 µM ([1]; compound at 10 μM, ATP 10 μM): < 50%
IC50 [2]: > 2500 nM
IC50 [3]: < 100 nM
inhibition at 10 µM ([4]; compound at 10 μM, ATP 10 μM): < 50%
Kd [5]: < 0.2 nM

[2H]C([2H])([2H])Oc1ncc(F)cc1Nc1cc(NC)n2ncc(C(=O)NC3CC3)c2n1 [I-284]
inhibition at 10 µM ([1]; compound at 10 μM, ATP 10 μM): < 50%
IC50 [2]: > 12500 nM
IC50 [3]: < 100 nM
inhibition at 10 µM ([4]; compound at 10 μM, ATP 10 μM): < 50%
Kd [5]: < 0.2 nM

CNc1cc(Nc2cccc(N3CCCC3=O)n2)nc2c(C(=O)NC3CCC3)cnn12 [I-94]
inhibition at 10 µM ([1]; compound at 10 μM, ATP 10 μM): < 50%
IC50 [2]: > 50000 nM
IC50 [3]: < 100 nM
inhibition at 10 µM ([4]; compound at 10 μM, ATP 10 μM): < 50%
Kd [5]: < 0.2 nM

CNc1cc(Nc2cc(F)cnc2OC(C)C)nc2c(C(=O)N[C@H]3C[C@H]3F)cnn12 [I-211]
inhibition at 10 µM ([1]; compound at 10 μM, ATP 10 μM): < 50%
IC50 [2]: > 50000 nM
IC50 [3]: 100 to 500 nM
inhibition at 10 µM ([4]; compound at 10 μM, ATP 10 μM): < 50%
Kd [5]: 0.2 to 1 nM

CNc1cc(Nc2cccn([C@H]3CC[C@](C)(OC)CC3)c2=O)nc2c(C(=O)N[C@H]3C[C@H]3F)cnn12 [I-362]
inhibition at 10 µM ([1]; compound at 10 μM, ATP 10 μM): < 50%
IC50 [2]: > 50000 nM
IC50 [3]: < 100 nM
inhibition at 10 µM ([4]; compound at 10 μM, ATP 10 μM): < 50%
Kd [5]: < 0.2 nM

[2H]C([2H])([2H])Oc1ncccc1Nc1cc(NC)n2ncc(C(=O)NCC(C)(C)CO)c2n1 [I-347]
inhibition at 10 µM ([1]; compound at 10 μM, ATP 10 μM): < 50%
IC50 [2]: > 50000 nM
IC50 [3]: < 100 nM
inhibition at 10 µM ([4]; compound at 10 μM, ATP 10 μM): < 50%
Kd [5]: < 0.2 nM

CNc1cc(Nc2cc(Cl)cn([C@H]3CCCN(C)C3)c2=O)nc2c(C(=O)NC3CC3)cnn12 [I-820]
inhibition at 10 µM ([1]; 10 μM compound, 10 μM ATP): < 50%
IC50 [2]: > 12500 nM
IC50 [3]: < 100 nM
inhibition at 10 µM ([4]; 10 μM compound, 10 μM ATP): < 50%
Kd [5]: < 0.2 nM

CNc1cc(Nc2cc(Cl)cn(-c3ccn(C)n3)c2=O)nc2c(C(=O)NC3CC3)cnn12 [I-310]
inhibition at 10 µM ([1]; compound at 10 μM, ATP 10 μM): < 50%
IC50 [2]: > 2500 nM
IC50 [3]: < 100 nM
inhibition at 10 µM ([4]; compound at 10 μM, ATP 10 μM): < 50%
Kd [5]: < 0.2 nM

CNc1cc(Nc2cccn(-c3ccc(N4CCOCC4)cc3)c2=O)nc2c(C(=O)N[C@H]3C[C@H]3F)cnn12 [I-135]
inhibition at 10 µM ([1]; compound at 10 μM, ATP 10 μM): < 50%
IC50 [2]: > 2500 nM
IC50 [3]: < 100 nM
inhibition at 10 µM ([4]; compound at 10 μM, ATP 10 μM): < 50%
Kd [5]: < 0.2 nM

CNc1cc(Nc2cccn(C3CCN(CCF)CC3)c2=O)nc2c(C(=O)NCC(C)(C)CO)cnn12 [I-847]
inhibition at 10 µM ([1]; 10 μM compound, 10 μM ATP): < 50%
IC50 [2]: > 50000 nM
IC50 [3]: 100 to 500 nM
inhibition at 10 µM ([4]; 10 μM compound, 10 μM ATP): < 50%
Kd [5]: < 0.2 nM
